The source of these data is patent US20230091047A1 (priority 2019, published 2023).

For data set [1], the system named is HBV (HepG2.117 cell line, inducibly HBV producing). Briefly: Anti-HBV activity: intracellular HBV DNA by real-time PCR in HepG2.117 cells after 3 days of treatment. In kind it is cell-based, hepatitis B virus. The gist of the method:
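Read-out is intracellular HBV DNA, measured by real-time PCR using HBV-specific primers and probe. Cells were stable, inducible HBV-producing HepG2.117 (Tet-off). Serially diluted compound was applied for 3 days after replication was induced.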
A general note: Quantitative PCR measures a nucleic acid by following its amplification.

The subject of data set [2] is HepG2 cells. Put plainly: in vitro. In kind it is cell-based. Conditions: HepG2 or HepG2.117 cells, ATPlite, mean value, read-out: CC50 (μM, mean value). Summed up: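 Luminescent ATP quantitation served as the viability endpoint following a 3- or 4-day incubation with test compounds.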
(ATP-based viability assays read luminescence as a measure of living cells.)

Setting [3] is: HepG2.117 cells, intracellular HBV DNA by real-time PCR, 3 days of treatment, mean value; read-out: EC50 (μM, mean value).
Where [4] appears, read: 3-days incubation (not marked with *).
Where [5] appears, read: HepG2.117 cells, 3 days of treatment, intracellular HBV DNA by real-time PCR; mean value; read-out: EC50 (μM, mean value).
Setting [6] is: 3-days incubation (unmarked values).

Read-outs that look alike come from different tables or passages of the source.

Take `CNc1noc2cc(-n3c(NC(C)C)nc4c(c3=O)C[C@@H](C)N(C(=O)c3ccc(Cl)c(Cl)c3)C4)c(C)cc12` (single isomer, unassigned) [Compound C447a]: the EC50 – broadly, the midpoint of the concentration-response curve – in data set [1] (setting [3]) was determined as 0.23 µM. Further, the CC50 (as a rule, the concentration that lowers cell viability or growth by half) in data set [2] (setting [4]) was over 50 µM.
Turning to `COc1ccccc1-n1c(N[C@@H](C)CO)nc2c(c1=O)CCN(C(=O)c1ccc(Cl)c(Cl)c1)C2` (single isomer, unassigned) [Compound C62Bb, 7-(3,4-dichlorobenzoyl)-2-{[(2*S)-1-hydroxypropan-2-yl]amino}-3-(2-methoxyphenyl)-5,6,7,8-tetrahydropyrido[3,4-d]pyrimidin-4(3H)-one], the EC50 in data set [1] (setting [5]) came out at 6.6 µM. Also, the CC50 in data set [2] (setting [6]) was over 50 µM.
As for `CNC(=O)c1ccc(-n2c(NC(C)C)nc3c(c2=O)C[C@@H](C)N(C(=O)c2ccc(Cl)c(Cl)c2)C3)c(Cl)c1` (atropisomer, axis not shown) [Compound C293b, 3-chloro-4-[(6R)-7-(3,4-dichlorobenzoyl)-6-methyl-4-oxo-2-[(propan-2-yl)amino]-5,6,7,8-tetrahydropyrido[3,4-d]pyrimidin-3(4H)-yl]-N-methylbenzamide], the EC50 in data set [1] (setting [5]) amounted to 0.06 µM. Further, in data set [2] (setting [6]), the CC50 turned out to be 27.1 µM.
Consider `Cc1cc(-n2cccn2)ccc1-n1c(NC(C)C)nc2c(c1=O)C[C@@H](C)N(C(=O)c1ccc(Cl)c(Cl)c1)C2` (atropisomer, axis not shown) [Compound C308a, (6R)-7-(3,4-dichlorobenzoyl)-6-methyl-3-[2-methyl-4-(1H-pyrazol-1-yl)phenyl]-2-[(propan-2-yl)amino]-5,6,7,8-tetrahydropyrido[3,4-d]pyrimidin-4(3H)-one], for which the EC50 in data set [1] (setting [5]) was found to be 0.11 µM. In addition, the CC50 in data set [2] (setting [6]) is over 50 µM.
Regarding `CNc1noc2cc(-n3c(NC(C)C)nc4c(c3=O)C[C@@H](C)N(C(=O)c3ccc(Cl)c(Cl)c3)C4)c(C)cc12` (single isomer, unassigned) [Compound C447b], the EC50 in data set [1] (setting [3]) stood at 0.05 µM. Moreover, the CC50 in data set [2] (setting [4]) is over 50 µM.
With `COc1ccc(CNc2nc3c(c(=O)n2-c2ccccc2OC)C[C@H](C)N(C(=O)c2ccc(Cl)c(Cl)c2)C3)cc1` (single isomer, unassigned) [Compound C36Bb], in data set [1] (setting [5]), the EC50 was over 50 µM. Moreover, in data set [2] (setting [6]), the CC50 was over 50 µM.
Consider `CNC(=O)c1ccc(-n2c(NC(C)C)nc3c(c2=O)C[C@@H](C)N(C(=O)c2ccc(Cl)c(C(F)(F)F)c2)C3)c(C(F)F)c1` (single isomer, unassigned) [Compound C669b], for which the EC50 in data set [1] (setting [3]) was 0.04 µM. For the same compound, the CC50 in data set [2] (setting [4]) is over 50 µM.
Turning to `CNC(=O)c1ccc(-n2c(NC(C)C)nc3c(c2=O)C[C@@H](C)N(C(=O)c2ccc(Cl)c(C(F)(F)F)c2)C3)c(OC)c1` (single isomer, unassigned) [Compound C643b], the EC50 in data set [1] (setting [3]) came to 0.05 µM. In addition, in data set [2] (setting [4]), the 50% cytotoxic concentration (CC50) was over 50 µM.
With `CC(C)Nc1nc2c(c(=O)n1-c1ccc(-c3ncc[nH]3)cc1Cl)C[C@@H](C)N(C(=O)c1ccc(Cl)c(Cl)c1)C2` (single isomer, unassigned) [Compound C393a], the EC50 in data set [1] (setting [3]) stood at 0.12 µM. The CC50 in data set [2] (setting [4]) stood at 14.1 µM.
Consider `CNC(=O)c1ccc(-n2c(NC(C)C)nc3c(c2=O)C[C@@H](C)N(C(=O)c2ccc(Cl)c(Cl)c2)C3)c(C(C)C)c1` (single isomer, unassigned) [Compound C420b], for which the 50% effective concentration (EC50) in data set [1] (setting [3]) came to 0.35 µM. Moreover, the 50% cytotoxic concentration (CC50) in data set [2] (setting [4]) is 23.5 µM.
With `CNC(=O)c1ccc(-n2c(N[C@@H](C)c3ccccc3)nc3c(c2=O)C[C@@H](C)N(C(=O)c2ccc(Cl)c(Cl)c2)C3)c(Cl)c1` (single isomer, unassigned) [Compound C386b], in data set [1] (setting [3]), the EC50 was determined as 0.1 µM. The CC50 in data set [2] (setting [4]) was over 50 µM.
As to `CNC(=O)c1ccc(-n2c(N[C@H]3C[C@@H]3c3ccc(OC)cc3)nc3c(c2=O)C[C@@H](C)N(C(=O)c2ccc(Cl)c(Cl)c2)C3)cc1` [Compound C452b], in data set [1] (setting [3]), the EC50 was over 10 µM. For the same compound, the CC50 in data set [2] (setting [4]) was over 50 µM.
